Converted amounts (≈) assume the structure as drawn.
Legend:
Pichia kudriavzevii [1] = assay: Antifungal activity against Candida krusei ATCC 6258 assessed as inhibition of fungal growth measured after 48 hrs by CLSI based agar dilution method; format: functional
[2] = Hemolytic activity in human RBC measured after 1 hr; format: toxicity, cell-based, Erythrocyte; settings: red blood cells (erythrocytes)
Candida albicans = assay: Antifungal activity against Candida albicans assessed as inhibition of fungal growth measured after 48 hrs by CLSI based agar dilution method; format: functional
Cryptococcus neoformans = assay: Antifungal activity against Cryptococcus neoformans ATCC 32609 assessed as inhibition of fungal growth measured after 48 hrs by CLSI based agar dilution method; format: functional
Candida parapsilosis = assay: Antifungal activity against Candida parapsilosis assessed as inhibition of fungal growth measured after 48 hrs by CLSI based agar dilution method; format: functional; settings: Lodderomyces parapsilosis
Candida tropicalis = assay: Antifungal activity against Candida tropicalis assessed as inhibition of fungal growth measured after 48 hrs by CLSI based agar dilution method; format: functional
Pichia kudriavzevii [3] = assay: Antifungal activity against Candida krusei assessed as inhibition of fungal growth measured after 48 hrs by CLSI based agar dilution method; format: functional

| Compound | MIC (Pichia kudriavzevii [1]) [µg/mL] | HC50 at 1 h [2] [µM] | MIC (Candida albicans) [µg/mL] | MIC (Cryptococcus neoformans) [µg/mL] | MIC (Candida parapsilosis) [µg/mL] | MIC (Candida tropicalis) [µg/mL] | MIC (Pichia kudriavzevii [3]) [µg/mL] |
| --- | --- | --- | --- | --- | --- | --- | --- |
| CNCC(=O)N[C@@H]1[C@H](O)[C@H](O[C@H]2/C=C/C=C/C=C/C=C/C=C/C=C/C=C/[C@H](C)[C@@H](O)[C@@H](C)[C@H](C)OC(=O)C[C@H](O)C[C@H](O)CC[C@@H](O)[C@H](O)C[C@H](O)C[C@]3(O)C[C@H](O)[C@@H](C(=O)N4CCN(CC(C)(O)CO)CC4)[C@H](C2)O3)O[C@H](C)[C@H]1O (stereo not given in full) | 8 (≈ 6.95 µM) | 20.6 | 0.06 (≈ 0.0521 µM) | 0.5 (≈ 0.434 µM) | 2 (≈ 1.74 µM) | 1 (≈ 0.869 µM) | 0.5 (≈ 0.434 µM) |
| CNCC(=O)N[C@@H]1[C@H](O)[C@H](O[C@H]2/C=C/C=C/C=C/C=C/C=C/C=C/C=C/[C@H](C)[C@@H](O)[C@@H](C)[C@H](C)OC(=O)C[C@H](O)C[C@H](O)CC[C@@H](O)[C@H](O)C[C@H](O)C[C@]3(O)C[C@H](O)[C@@H](C(=O)N(C)CCO)[C@H](C2)O3)O[C@H](C)[C@H]1O | 2 (≈ 1.9 µM) | 14.8 | 0.5 (≈ 0.475 µM) | 0.5 (≈ 0.475 µM) | 1 (≈ 0.95 µM) | 1 (≈ 0.95 µM) | 1 (≈ 0.95 µM) |
| CNCC(=O)N[C@@H]1[C@H](O)[C@H](O[C@H]2/C=C/C=C/C=C/C=C/C=C/C=C/C=C/[C@H](C)[C@@H](O)[C@@H](C)[C@H](C)OC(=O)C[C@H](O)C[C@H](O)CC[C@@H](O)[C@H](O)C[C@H](O)C[C@]3(O)C[C@H](O)[C@@H](C(=O)N4CCN(CCCO)CC4)[C@H](C2)O3)O[C@H](C)[C@H]1O | 2 (≈ 1.78 µM) | 19.5 | 0.5 (≈ 0.446 µM) | 0.125 (≈ 0.111 µM) | 0.5 (≈ 0.446 µM) | 0.5 (≈ 0.446 µM) | 0.5 (≈ 0.446 µM) |
| C[C@@H]1[C@H](O)[C@@H](C)/C=C/C=C/C=C/C=C/C=C/C=C/C=C/[C@H](O[C@@H]2O[C@H](C)[C@@H](O)[C@H](NC(=O)CN)[C@@H]2O)C[C@@H]2O[C@](O)(C[C@@H](O)C[C@@H](O)[C@H](O)CC[C@@H](O)C[C@@H](O)CC(=O)O[C@H]1C)C[C@H](O)[C@H]2C(=O)NCCCO | 0.25 (≈ 0.241 µM) | 7.86 | 0.5 (≈ 0.482 µM) | 0.25 (≈ 0.241 µM) | 0.5 (≈ 0.482 µM) | 2 (≈ 1.93 µM) | 0.25 (≈ 0.241 µM) |
| CNCC(=O)N[C@@H]1[C@H](O)[C@H](O[C@H]2/C=C/C=C/C=C/C=C/C=C/C=C/C=C/[C@H](C)[C@@H](O)[C@@H](C)[C@H](C)OC(=O)C[C@H](O)C[C@H](O)CC[C@@H](O)[C@H](O)C[C@H](O)C[C@]3(O)C[C@H](O)[C@@H](C(=O)NCCO)[C@H](C2)O3)O[C@H](C)[C@H]1O | 0.125 (≈ 0.12 µM) | 1.79 | 1 (≈ 0.963 µM) | 0.5 (≈ 0.482 µM) | 2 (≈ 1.93 µM) | 2 (≈ 1.93 µM) | 1 (≈ 0.963 µM) |
| CNCC(=O)N[C@@H]1[C@H](O)[C@H](O[C@H]2/C=C/C=C/C=C/C=C/C=C/C=C/C=C/[C@H](C)[C@@H](O)[C@@H](C)[C@H](C)OC(=O)C[C@H](O)C[C@H](O)CC[C@@H](O)[C@H](O)C[C@H](O)C[C@]3(O)C[C@H](O)[C@@H](C(=O)N(C)CCCO)[C@H](C2)O3)O[C@H](C)[C@H]1O | 4 (≈ 3.75 µM) | 9.52 | 0.06 (≈ 0.0563 µM) | 1 (≈ 0.938 µM) | 4 (≈ 3.75 µM) | 4 (≈ 3.75 µM) | 0.5 (≈ 0.469 µM) |
| CNCC(=O)N[C@@H]1[C@H](O)[C@H](O[C@H]2/C=C/C=C/C=C/C=C/C=C/C=C/C=C/[C@H](C)[C@@H](O)[C@@H](C)[C@H](C)OC(=O)C[C@H](O)C[C@H](O)CC[C@@H](O)[C@H](O)C[C@H](O)C[C@]3(O)C[C@H](O)[C@@H](C(=O)N4CCC(O)CC4)[C@H](C2)O3)O[C@H](C)[C@H]1O | 4 (≈ 3.71 µM) | 6.3 | 0.5 (≈ 0.464 µM) | 0.25 (≈ 0.232 µM) | 2 (≈ 1.85 µM) | 2 (≈ 1.85 µM) | 2 (≈ 1.85 µM) |
| CNCC(=O)N[C@@H]1[C@H](O)[C@H](O[C@H]2/C=C/C=C/C=C/C=C/C=C/C=C/C=C/[C@H](C)[C@@H](O)[C@@H](C)[C@H](C)OC(=O)C[C@H](O)C[C@H](O)CC[C@@H](O)[C@H](O)C[C@H](O)C[C@]3(O)C[C@H](O)[C@@H](C(=O)N4CCN(CCO)CC4)[C@H](C2)O3)O[C@H](C)[C@H]1O | 2 (≈ 1.81 µM) | 15.1 | 0.125 (≈ 0.113 µM) | 0.03 (≈ 0.0271 µM) | 0.5 (≈ 0.452 µM) | 0.5 (≈ 0.452 µM) | 0.25 (≈ 0.226 µM) |
| CNCC(=O)N[C@@H]1[C@H](O)[C@H](O[C@H]2/C=C/C=C/C=C/C=C/C=C/C=C/C=C/[C@H](C)[C@@H](O)[C@@H](C)[C@H](C)OC(=O)C[C@H](O)C[C@H](O)CC[C@@H](O)[C@H](O)C[C@H](O)C[C@]3(O)C[C@H](O)[C@@H](C(=O)N4CCN(CC(O)CO)CC4)[C@H](C2)O3)O[C@H](C)[C@H]1O (stereo not given in full) | 2 (≈ 1.76 µM) | 9.06 | 1 (≈ 0.879 µM) | 0.5 (≈ 0.44 µM) | 0.25 (≈ 0.22 µM) | 1 (≈ 0.879 µM) | 1 (≈ 0.879 µM) |
| CNCC(=O)N[C@@H]1[C@H](O)[C@H](O[C@H]2/C=C/C=C/C=C/C=C/C=C/C=C/C=C/[C@H](C)[C@@H](O)[C@@H](C)[C@H](C)OC(=O)C[C@H](O)C[C@H](O)CC[C@@H](O)[C@H](O)C[C@H](O)C[C@]3(O)C[C@H](O)[C@@H](C(=O)N4CCN(CC(C)(C)O)CC4)[C@H](C2)O3)O[C@H](C)[C@H]1O | 16 (≈ 14.1 µM) | 27.7 | 0.25 (≈ 0.22 µM) | 0.5 (≈ 0.44 µM) | 4 (≈ 3.52 µM) | 1 (≈ 0.881 µM) | 0.5 (≈ 0.44 µM) |
| CCOC(=O)NNC(=O)[C@H]1[C@@H]2C[C@@H](O[C@@H]3O[C@H](C)[C@@H](O)[C@H](N)[C@@H]3O)/C=C/C=C/C=C/C=C/C=C/C=C/C=C/[C@H](C)[C@@H](O)[C@@H](C)[C@H](C)OC(=O)C[C@H](O)C[C@H](O)CC[C@@H](O)[C@H](O)C[C@H](O)C[C@](O)(C[C@@H]1O)O2 | 0.5 (≈ 0.495 µM) | 6.29 | 0.25 (≈ 0.247 µM) | 0.06 (≈ 0.0594 µM) | 2 (≈ 1.98 µM) | 2 (≈ 1.98 µM) | 0.25 (≈ 0.247 µM) |
| CC(=O)NNC(=O)[C@H]1[C@@H]2C[C@@H](O[C@@H]3O[C@H](C)[C@@H](O)[C@H](NC(=O)CN)[C@@H]3O)/C=C/C=C/C=C/C=C/C=C/C=C/C=C/[C@H](C)[C@@H](O)[C@@H](C)[C@H](C)OC(=O)C[C@H](O)C[C@H](O)CC[C@@H](O)[C@H](O)C[C@H](O)C[C@](O)(C[C@@H]1O)O2 | 1 (≈ 0.964 µM) | 6 | 0.06 (≈ 0.0578 µM) | 0.125 (≈ 0.121 µM) | 2 (≈ 1.93 µM) | 2 (≈ 1.93 µM) | 0.125 (≈ 0.121 µM) |
| COC(=O)NNC(=O)[C@H]1[C@@H]2C[C@@H](O[C@@H]3O[C@H](C)[C@@H](O)[C@H](N)[C@@H]3O)/C=C/C=C/C=C/C=C/C=C/C=C/C=C/[C@H](C)[C@@H](O)[C@@H](C)[C@H](C)OC(=O)C[C@H](O)C[C@H](O)CC[C@@H](O)[C@H](O)C[C@H](O)C[C@](O)(C[C@@H]1O)O2 | 0.25 (≈ 0.251 µM) | 5.69 | 0.015 (≈ 0.0151 µM) | 0.125 (≈ 0.125 µM) | 0.5 (≈ 0.502 µM) | 0.5 (≈ 0.502 µM) | 0.015 (≈ 0.0151 µM) |
| CNCC(=O)N[C@@H]1[C@H](O)[C@H](O[C@H]2/C=C/C=C/C=C/C=C/C=C/C=C/C=C/[C@H](C)[C@@H](O)[C@@H](C)[C@H](C)OC(=O)C[C@H](O)C[C@H](O)CC[C@@H](O)[C@H](O)C[C@H](O)C[C@]3(O)C[C@H](O)[C@@H](C(=O)NCCCO)[C@H](C2)O3)O[C@H](C)[C@H]1O | 0.25 (≈ 0.238 µM) | 6.24 | 0.125 (≈ 0.119 µM) | 0.25 (≈ 0.238 µM) | 0.5 (≈ 0.475 µM) | 0.5 (≈ 0.475 µM) | 0.5 (≈ 0.475 µM) |
| COC(=O)NNC(=O)[C@H]1[C@@H]2C[C@@H](O[C@@H]3O[C@H](C)[C@@H](O)[C@H](NC(=O)CN)[C@@H]3O)/C=C/C=C/C=C/C=C/C=C/C=C/C=C/[C@H](C)[C@@H](O)[C@@H](C)[C@H](C)OC(=O)C[C@H](O)C[C@H](O)CC[C@@H](O)[C@H](O)C[C@H](O)C[C@](O)(C[C@@H]1O)O2 | 0.5 (≈ 0.475 µM) | 8.84 | 0.06 (≈ 0.057 µM) | 1.12 (≈ 1.07 µM) | 2 (≈ 1.9 µM) | 0.25 (≈ 0.237 µM) | 0.125 (≈ 0.119 µM) |
| CC(=O)NNC(=O)[C@H]1[C@@H]2C[C@@H](O[C@@H]3O[C@H](C)[C@@H](O)[C@H](N)[C@@H]3O)/C=C/C=C/C=C/C=C/C=C/C=C/C=C/[C@H](C)[C@@H](O)[C@@H](C)[C@H](C)OC(=O)C[C@H](O)C[C@H](O)CC[C@@H](O)[C@H](O)C[C@H](O)C[C@](O)(C[C@@H]1O)O2 | 1 (≈ 1.02 µM) | 5.61 | 0.25 (≈ 0.255 µM) | 0.125 (≈ 0.128 µM) | 1 (≈ 1.02 µM) | 2 (≈ 2.04 µM) | 0.125 (≈ 0.128 µM) |
| C[C@@H]1[C@H](O)[C@@H](C)/C=C/C=C/C=C/C=C/C=C/C=C/C=C/[C@H](O[C@@H]2O[C@H](C)[C@@H](O)[C@H](NC(=O)CN)[C@@H]2O)C[C@@H]2O[C@](O)(C[C@@H](O)C[C@@H](O)[C@H](O)CC[C@@H](O)C[C@@H](O)CC(=O)O[C@H]1C)C[C@H](O)[C@H]2C(=O)NCCN(C)C | 16 (≈ 15.2 µM) |  | 1 (≈ 0.951 µM) | 0.5 (≈ 0.476 µM) | 1 (≈ 0.951 µM) | 2 (≈ 1.9 µM) | 1 (≈ 0.951 µM) |
| CNCC(=O)N[C@@H]1[C@H](O)[C@H](O[C@H]2/C=C/C=C/C=C/C=C/C=C/C=C/C=C/[C@H](C)[C@@H](O)[C@@H](C)[C@H](C)OC(=O)C[C@H](O)C[C@H](O)CC[C@@H](O)[C@H](O)C[C@H](O)C[C@]3(O)C[C@H](O)[C@@H](C(=O)N4CCN(C(=O)c5ccncn5)CC4)[C@H](C2)O3)O[C@H](C)[C@H]1O | 16 (≈ 13.7 µM) |  | 1 (≈ 0.855 µM) | 1 (≈ 0.855 µM) | 16 (≈ 13.7 µM) | 4 (≈ 3.42 µM) | 1 (≈ 0.855 µM) |
| C[C@@H]1[C@H](O)[C@@H](C)/C=C/C=C/C=C/C=C/C=C/C=C/C=C/[C@H](O[C@@H]2O[C@H](C)[C@@H](O)[C@H](NC(=O)CN)[C@@H]2O)C[C@@H]2O[C@](O)(C[C@@H](O)C[C@@H](O)[C@H](O)CC[C@@H](O)C[C@@H](O)CC(=O)O[C@H]1C)C[C@H](O)[C@H]2C(=O)NCCCN(C)C | 32 (≈ 30 µM) |  | 1 (≈ 0.939 µM) | 2 (≈ 1.88 µM) | 8 (≈ 7.51 µM) | 16 (≈ 15 µM) | 8 (≈ 7.51 µM) |
